What was measured:
murine M2 macrophage [1] = assay: Macrophage phenotype by flow cytometry (CD86, CD206) after drug-induced differentiation; type: cell-based; conditions: conditions of chart 2, p<0.05, FIG. 3
Experimental: Use PBS containing 0.5% BSA to flush out bone marrow cells from murine (C57BL/6J, 8-20 weeks, Taiwan National Laboratory Animal Center) femur, then use Ficoll-Hypaque (GE healthcare, SWEDEN) to isolate monocytes.
Then, incubate 2×10^6 monocytes in 50 ng/ml M-CSF contained RPMI 1640 (10% FCS) medium under 37° c., 5% CO2 for seven days to induce M2 macrophage polarization. On the eighth day, collect 2×10^5 M2 macrophage and incubate them in RPMI 1640 (10% FCS) medium with Baicalin (50 μM, Tokyo Chemical Industry, JAPAN) for 24 hours. Baicalin will induce M2 macrophage to differentiate into M2C macrophage.
(§1) Embodiment 1 is prepared by the steps described above, isolate monocytes from murine bone marrow and use M-CSF to induce differentiation of M2 macrophage, and then use baicalin to induce M2C macrophage polarization. In comparison 1, incubate murine M2 macrophage in RPMI 1640 (10% FCS) containing LPS (lipopolysaccharide, 1 μg/ml, Sigma-Aldrich) for 2 hours. In comparison 2, incubate murine M2 macrophage in medium containing IL-4 ([…] Guidance System, Cambridge, UK) for 24 hours. The control group of M2 macrophage is incubated in RPMI 1640 (10% FCS) without any drugs. The conditions are shown below in chart 2.
After induced differentiation is complete, use flow cytometry to analyse the macrophage phenotype, in the meantime, also use real time PCR (qPCR) to observe mRNA expression level of each gene.
(§2) FIG. 2˜4 show results of macrophage phenotypes analysed by flow cytometry.

murine M2 macrophage [2] = assay: Macrophage cell morphology under microscope; type: cell-based; conditions: versus M-CSF control and comparison 2, FIG. 4
Experimental: as §1, §2

[3] = tested on: M1 and M2 macrophage derived from Raw264.7 cell line; assay: mRNA expression of VEGF family, VEGF receptor and PD-L1 by RT-qPCR in Raw264.7 derived macrophages; type: cell-based, murine
Experimental: In this example, experiment was performed to observe if baicalin can induce expression of VEGF family and PD-L1 in M1 and M2 macrophage derived from Raw264.7 cell line (ATCC, USA). M1 macrophage obtained from treating Raw264.7 macrophage with LPS (1 μg/ml, Sigma-Aldrich) for 2 hours, and M0 macrophage (control group) cultured in simple RPMI 1640 (10% FCS) medium, are respectively cultured in RPMI 1640 (10% FCS) medium with either Baicalin (50 μM, Tokyo Chemical Industry, Japan) or […] (10 ng/ml, Cell Guidance System, Cambridge, UK). Collect the cells after 24/48/72 hours of cell culturing. Then observe the mRNA expression level of VEGF family, VEGF receptor and PD-L1 using reverse transcription-real time PCR (RT-qPCR).

[4] = baicalin 50 μM, 24/48/72 hours, versus groups without baicalin, FIG. 10
[5] = versus IL-4 treated group, same treatment duration, p<0.05, FIG. 11

O=C(O)[C@H]1O[C@@H](Oc2cc3oc(-c4ccccc4)cc(=O)c3c(O)c2O)[C@H](O)[C@@H](O)[C@@H]1O [Baicalin]
percentage of cells expressing CD86 and CD206 (murine M2 macrophage [1]): lower than both comparison 1 and 2
morphology of macrophages (murine M2 macrophage [2]): ellipse instead of spindle shaped
VEGF-A mRNA expression level ([3]; baicalin 50 μM, 24/48/72 hours, versus M1, M2 macrophages without baicalin treatment (LPS, control), FIG. 9): higher
VEGFR-1 mRNA expression level [3, 4]: higher
VEGFR-2 mRNA expression level [3, 4]: higher
VEGF-A mRNA expression level [3, 5]: significantly higher
VEGFR1 mRNA expression level [3, 5]: significantly higher
VEGFR2 mRNA expression level [3, 5]: significantly higher
PD-L1 mRNA expression level ([3]; versus M1, M2 macrophages without baicalin treatment, p<0.05, FIG. 12): higher
